Measurements published in US10195208B2, “Combination therapy” (Novartis AG, priority 2014, dated 2019).
Several values for one entry are separate records, joined by “and”; a condition that tells them apart may be missing. Equal entries are not always repeated.

Experiments:
[1] = tested on: Compound A resistant NSCLC HCC827 tumor; experiment: Efficacy study in Compound A resistant HCC827 mouse xenograft model (GNF-11-308-138); type: in vivo, SCID beige mice; settings: for Individual tumor volume: single animals; for Tumor volume, group Mean: n=6; for Mean initial Tumor Volume (mm^3 ± SE): initial day of dosing
[2] = Tolerability (body weight) in Compound A resistant HCC827 mouse xenograft model; settings: for Final BW (g) mean ± SD: day 14; for BW (%) mean, percent body weight change: day 14 versus day of treatment initiation
Method: INC280-AA-3 was formulated in 0.25% MC (methylcellulose) 0.05% Tween 80 in water, solution. […] Animals were weighed on dosing days and doses were body weight adjusted. Tumor volumes were measured by digital caliper 3 times a week and body weights of all animals were recorded throughout the study.
Body weight was monitored daily and the % change in body weight was calculated as (BWcurrent−BWinitial)/(BWinitial)×100. Data is presented as percent body weight change from the day of treatment initiation.

[3] = tested on: EGFR and cMET phosphorylation; experiment: Acute PD western blot of pEGFR and pMET in resistant NCI-HCC827 tumors; type: in vivo, SCID beige mice; settings: single dose; Compound A 30 mg/kg, INC280 10 mg/kg; tumors taken 6 hours post dose
Text: SCID beige mice bearing the Erlotinib resistant tumors (Animals 2-5), n=1 per group, a total of 4 groups and randomized 50 days post tumor fragment implantation with an average tumor volume of 1236.18 mm^3 and SD of 316.57 mm^3. Compound A resistant HCC827 tumors ([…]) were randomized into 4 groups (n=3 mice per group) 24 days post tumor fragment implantation with an average tumor volume of 963.24 mm^3 with SD 179.56 mm^3. Animals in each group received once daily oral administration of Compound A at 30 mg/kg or twice daily INC280-AA-3 at 10 mg/kg alone or in combination.
Evaluation of target inhibition of pEGFR and pMET were done by western blot analysis. 40 […] of tumor lysate proteins were electrophoresed per sample using Criterion 4-12% Bis-Tris gels (Bio-Rad, Cat #345-0124). Upon completion of protein transfer, membranes were incubated with 5% BSA (Sigma) in TBST (25 mM Tris, 150 mM NaCl, 0.1% Tween-20) for 1 h at room temperature to block non-specific binding. […]

HCC827 = experiment: Cell proliferation assay (CellTiter-Glo), dose matrix combination, HCC827 parental; type: cell-based, human; settings: HCC827 parental line, 72 hours
Method: HCC827 was obtained from ATCC. HCC827 GR5 (resistant to Gefitinib) was obtained from Jeff Engleman lab at Massachusetts General Hospital. Both cells were cultured in RPMI-1640 (ATCC, #30-2001) with 10% FBS (Thermo scientific, #SH30071.03) and maintained in a 37° C., 5% CO2 incubator. Cells were passaged twice a week using TrypLE™ Express (Invitrogen, #12604-013), an animal origin-free recombinant enzyme used for dissociating adherent mammalian cells compare to the regular trypsin.
Cell viability was determined by measuring cellular ATP content using the CellTiter-Glo® (CTG) luminescent cell viability assay (Promega #G7573) according to the manufacturer's protocol. […] At the end of the drug treatment, 100 ul CTG reagent was added to each well to lyse the cells, and luminescence signals were recorded in the Envision plate reader (Perkin Elmer).
To evaluate the combination effect in a non-bias way and to identify synergistic effect at all possible concentrations, the combination studies were conducted with a “dose matrix”, where a combination is tested in all possible permutations of serially-diluted compounds. […] The synergistic interaction was analyzed using Chalice software (CombinatoRx, Cambridge Mass.). Synergy was calculated by comparing a combination's response to those of its single agents, against the drug-with-itself dose-additive reference model. […]

[4] = day 0 post dosing (day 22 post implant)
[5] = day 2 post dosing (day 24 post implant)
[6] = day 5 post dosing (day 27 post implant)
[7] = day 7 post dosing (day 29 post implant)
[8] = day 9 post dosing (day 31 post implant)
[9] = day 12 post dosing (day 34 post implant)
[10] = day 14, Compound A 30 mg/kg QD, INC280 10 mg/kg BID, oral
[11] = day 14 post dosing (day 36 post implant)
[12] = Compound A 30 mg/kg QD, INC280 10 mg/kg BID, oral
[13] = Compound A 30 mg/kg QD, INC280 10 mg/kg BID

Row | Structure (SMILES) | Individual tumor volume [1, 4] | Tumor volume, group Mean ([1]; day 0 post dosing) [mm^3] | Individual tumor volume [1, 5] | Tumor volume, group Mean ([1]; day 2 post dosing) [mm^3] | Individual tumor volume [1, 6] | Tumor volume, group Mean ([1]; day 5 post dosing) [mm^3] | Individual tumor volume [1, 7] | Tumor volume, group Mean ([1]; day 7 post dosing) [mm^3] | Individual tumor volume [1, 8] | Tumor volume, group Mean ([1]; day 9 post dosing) [mm^3] | Individual tumor volume [1, 9] | Tumor volume, group Mean ([1]; day 12 post dosing) [mm^3] | Mean final Tumor Volume (mm^3 ± SE) [1, 10] [mm^3] | Individual tumor volume [1, 11] | Tumor volume, group Mean ([1]; day 14 post dosing) [mm^3] | Mean initial Tumor Volume (mm^3 ± SE) [1, 12] [mm^3] | Final BW (g) mean ± SD [2, 13] [g] | BW (%) mean, percent body weight change [2] [%] | Initial BW (g) mean ± SD [2, 13] [g] | inhibition of EGFR and cMET phosphorylation in tumor lysates (western) [3] | further results
1 | CNC(=O)c1ccc(-c2cnc3ncc(Cc4ccc5ncccc5c4)n3n2)cc1F [INC280, 2-fluoro-N-methyl-4-[(7-quinolin-6-yl-methyl)-imidazo[1,2-b]triazin-2-yl]benzamide] | 456.20 mm^3 and 520.06 mm^3 and 543.63 mm^3 and 640.13 mm^3 and 655.67 mm^3 and 713.33 mm^3 | 588.17 | 531.11 mm^3 and 641.24 mm^3 and 502.64 mm^3 and 784.24 mm^3 and 667.19 mm^3 and 674.14 mm^3 | 633.43 | 869.50 mm^3 and 753.37 mm^3 and 556.93 mm^3 and 822.50 mm^3 and 628.26 mm^3 and 834.83 mm^3 | 744.23 | 690.94 mm^3 and 653.24 mm^3 and 589.97 mm^3 and 675.03 mm^3 and 699.40 mm^3 and 627.01 mm^3 | 655.93 | 646.47 mm^3 and 649.16 mm^3 and 572.94 mm^3 and 510.69 mm^3 and 613.71 mm^3 and 594.99 mm^3 | 597.99 | 688.69 mm^3 and 617.11 mm^3 and 487.07 mm^3 and 531.80 mm^3 and 432.97 mm^3 and 585.67 mm^3 | 557.22 | 760.84 ± 81.62 | 1030.71 mm^3 and 948.57 mm^3 and 521.81 mm^3 and 674.65 mm^3 and 598.62 mm^3 and 790.69 mm^3 | 760.84 | 588.17 ± 39.56 | 19.95 ± 1.58 | −3.83 | 20.74 ± 0.79 | selective depletion of pEGFR and pMET expression | Mean T/C (percent treated versus control; negative = regression) [1, 10]: 23%; tolerability in words ([2]; 14 day treatment, Compound A 30 mg/kg QD, INC280 10 mg/kg BID): well tolerated for rest of the study; group body weight change ([2]; day 7): −8.5%; group body weight change ([2]; day 8): −5.66%
2 | Cc1cc(C(=O)Nc2nc3cccc(Cl)c3n2[C@@H]2CCCCN(C(=O)/C=C/CN(C)C)C2)ccn1 [Compound A, (R,E)-N-(7-chloro-1-(1-(4-(dimethylamino)but-2-enoyl)azepan-3-yl)-1H-benzo[d]imidazol-2-yl)-2-methylisonicotinamide] | 470.34 mm^3 and 502.24 mm^3 and 547.37 mm^3 and 597.98 mm^3 and 657.77 mm^3 and 694.21 mm^3 | 578.32 | 425.76 mm^3 and 474.70 mm^3 and 500.47 mm^3 and 718.94 mm^3 and 679.81 mm^3 and 723.63 mm^3 | 587.22 | 447.17 mm^3 and 509.01 mm^3 and 478.72 mm^3 and 709.28 mm^3 and 723.82 mm^3 and 730.32 mm^3 | 599.72 | 641.63 mm^3 and 591.63 mm^3 and 523.15 mm^3 and 792.15 mm^3 and 837.06 mm^3 and 800.58 mm^3 | 697.70 | 595.65 mm^3 and 822.67 mm^3 and 611.23 mm^3 and 877.37 mm^3 and 891.82 mm^3 and 940.84 mm^3 | 789.93 | 932.76 mm^3 and 885.77 mm^3 and 742.37 mm^3 and 1125.55 mm^3 and 1019.63 mm^3 and 1028.22 mm^3 | 955.72 | 1063.26 ± 93.45 | 882.62 mm^3 and 1115.99 mm^3 and 727.98 mm^3 and 1076.46 mm^3 and 1368.14 mm^3 and 1208.36 mm^3 | 1063.26 | 578.32 ± 35.84 | 22.58 ± 1.00 | 5.39 | 21.43 ± 0.77 | selective depletion of pEGFR and pMET expression | anti-tumor activity in words ([1]; 14 days, Compound A 30 mg/kg QD, INC280 10 mg/kg BID, oral, versus vehicle): not significantly different from vehicle; single agent response, cell viability (HCC827): only respond to Compound A
